Source: patent US7135466B2 (Kirin Beer Kabushiki Kaisha, priority 1999, dated 2006)

molecular target: T1, c-kit (Homo sapiens, UniProt P10721); experiment: Inhibitory activity against c-kit autophosphorylation (MO7e cells, h-SCF); assay type: cell-based; details: MO7e cells, 50 ng/ml h-SCF; read-out: c-kit IC50
T1 construct: MO7e (human megakaryocytic leukemia cell line) which had been arrested for 20 hr; endogenous in cells; host or cells: MO7e human megakaryocytic leukemia cell line
Procedure, shortened: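 Ligand-induced c-kit tyrosine phosphorylation is measured in MO7e cells that were quiesced 20 hr and preincubated with compound for 1 hr prior to a 5 min pulse of 50 ng/ml human SCF. Phospho-c-kit is detected by anti-phosphotyrosine capture ELISA, A450.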

T1 sequence (P10721 26-976): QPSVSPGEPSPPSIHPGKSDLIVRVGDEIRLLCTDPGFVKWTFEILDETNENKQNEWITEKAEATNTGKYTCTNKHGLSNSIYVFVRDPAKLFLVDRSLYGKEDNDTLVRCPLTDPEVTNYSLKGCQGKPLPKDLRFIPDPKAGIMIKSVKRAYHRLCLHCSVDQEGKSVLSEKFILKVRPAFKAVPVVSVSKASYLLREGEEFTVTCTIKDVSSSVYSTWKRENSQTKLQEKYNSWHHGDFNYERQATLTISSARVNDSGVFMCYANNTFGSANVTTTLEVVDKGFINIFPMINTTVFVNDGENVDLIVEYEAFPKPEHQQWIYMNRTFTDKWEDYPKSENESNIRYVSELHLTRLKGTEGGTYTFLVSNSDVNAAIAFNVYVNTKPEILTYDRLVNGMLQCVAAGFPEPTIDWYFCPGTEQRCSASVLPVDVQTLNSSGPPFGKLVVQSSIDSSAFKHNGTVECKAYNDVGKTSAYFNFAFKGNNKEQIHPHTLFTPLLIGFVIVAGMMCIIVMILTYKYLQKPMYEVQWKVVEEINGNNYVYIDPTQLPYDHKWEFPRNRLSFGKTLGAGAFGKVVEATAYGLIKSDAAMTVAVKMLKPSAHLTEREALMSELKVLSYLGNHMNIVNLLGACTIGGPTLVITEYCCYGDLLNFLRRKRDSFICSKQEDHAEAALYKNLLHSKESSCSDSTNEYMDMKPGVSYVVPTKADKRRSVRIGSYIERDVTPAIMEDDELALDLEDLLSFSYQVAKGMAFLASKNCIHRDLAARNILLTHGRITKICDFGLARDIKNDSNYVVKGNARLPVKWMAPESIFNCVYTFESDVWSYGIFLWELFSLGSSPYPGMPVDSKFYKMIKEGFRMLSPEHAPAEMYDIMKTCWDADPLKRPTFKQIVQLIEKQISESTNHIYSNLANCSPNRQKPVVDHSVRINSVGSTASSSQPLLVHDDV

In order of falling IC50:
1. COc1cc2nccc(Oc3ccc(OCC(=O)Nc4ccccc4C)cc3)c2cc1OC [Example 782, N1-(2-Methylphenyl)-2-{4-[(6,7-dimethoxy-4-quinolyl)oxy]phenoxy}acetamide]  0.365 µM
2. COc1ccc(NC(=O)COc2ccc(Oc3ccnc4cc(OC)c(OC)cc34)cc2)cc1 [Example 780, N1-(4-Methoxyphenyl)-2-{4-[(6,7-dimethoxy-4-quinolyl)oxy]phenoxy}acetamide]  0.048 µM

same assay, conditions: MO7e cells, h-SCF 50 ng/ml; read-out: c-kit IC50

In order of rising IC50:
1. COc1cc2nccc(Oc3ccc(NC(=O)OC4CCCCC4)c(C)c3C)c2cc1OC [Example 222, Cyclohexyl N-{4-[(6,7-dimethoxy-4-quinolyl)oxy]-2,3-dimethylphenyl}carbamate]  0.101 µM
2. COc1cc2nccc(Oc3cc(C)c(NC(=O)Oc4ccccc4)cc3C)c2cc1OC [Example 224, Phenyl N-{4-[(6,7-dimethoxy-4-quinolyl)oxy]-2,5-dimethylphenyl}carbamate]  0.147 µM
3. COc1cc2nccc(Oc3ccc(NC(=O)SCc4ccc(C)cc4)cc3)c2cc1OC [Example 107, 4-Methylbenzyl {4-[(6,7-dimethoxy-4-quinolyl)oxy]anilino}methanethioate]  0.372 µM

same assay, conditions: MO7e cells, h-SCF stimulation; read-out: c-kit IC50

In order of rising IC50:
1. COc1cc2nccc(Oc3ccc(NC(=S)NC(=O)c4cccc(C(F)(F)F)c4)cc3Cl)c2cc1OC [Example 951, N-{3-Chloro-4-[(6,7-dimethoxy-4-quinolyl)oxy]phenyl}-N′-[3-(trifluoromethyl)benzoyl]-thiourea]  0.124 µM
2. COc1cc2nccc(Oc3ccc(SCCCOc4ccccc4F)cc3)c2cc1OC [Example 842, 4-(4-{[3-(2-Fluorophenoxy)propyl]sulfanyl}phenoxy)-6,7-dimethoxyquinoline]  0.127 µM
3. COc1cc2ncnc(Oc3ccc(NCCOc4ccccc4O)cc3)c2cc1OC [Example 874, 2-(2-{4-[(6,7-Dimethoxy-4-quinazolinyl)oxy]anilino}ethoxy)phenol]  0.151 µM
4. COc1cccc(C(=O)NC(=S)Nc2ccc(Oc3ccnc4cc(OC)c(OC)cc34)c(Cl)c2)c1 [Example 950, N-{3-Chloro-4-[(6,7-dimethoxy-4-quinolyl)oxy]phenyl}-N′-(3-methoxybenzoyl)thiourea]  0.224 µM
5. COc1cc2nccc(Oc3ccc(SCCCCOc4ccccc4F)cc3)c2cc1OC [Example 843, 4-(4-{[4-(2-Fluorophenoxy)butyl]sulfanyl}phenoxy)-6,7-dimethoxyquinoline]  0.263 µM
6. COc1cc2nccc(Oc3ccc(SCCOc4ccc(F)cc4)cc3)c2cc1OC [Example 824, 4-(4-{[2-(4-Fluorophenoxy)ethyl]sulfanyl}phenoxy)-6,7-dimethoxyquinoline]  0.268 µM
7. COc1cc2nccc(Oc3ccc(NC(=S)NC(=O)C4CCCCC4)c(F)c3)c2cc1OC [Example 1064, N-Cyclohexylcarbonyl-N′-{4-[(6,7-dimethoxy-4-quinolyl)oxy]-2-fluorophenyl}thiourea]  0.279 µM
8. COc1cc2nccc(Oc3ccc(NCCOc4c(Cl)cccc4Cl)cc3)c2cc1OC [Example 854, N-[2-(2,6-Dichlorophenoxy)ethyl]-N-{4-[(6,7-dimethoxy-4-quinolyl)oxy]phenyl}amine]  0.313 µM
9. COc1cc2nccc(Oc3ccc(SCCOc4ccccc4F)cc3)c2cc1OC [Example 822]  0.451 µM
10. COc1cc2nccc(Oc3ccc(NC(=S)NC(=O)C4CCCC4)c(F)c3)c2cc1OC [Example 1063, N-Cyclopentylcarbonyl-N′-{4-[(6,7-dimethoxy-4-quinolyl)oxy]-2-fluorophenyl}thiourea]  0.491 µM
11. COc1cc2nccc(Oc3ccc(NC(=S)NC(=O)c4cc(C)oc4C)c(F)c3)c2cc1OC [Example 1037, N-{4-[(6,7-Dimethoxy-4-quinolyl)oxy]-2-fluorophenyl}-N′-[(2,5-dimethyl-3-furyl)carbonyl]-thiourea]  0.558 µM
12. COc1cc2nccc(Oc3ccc(NC(=S)NC(=O)c4ccccc4Br)c(F)c3)c2cc1OC [Example 907, N-(2-Bromobenzoyl)-N′-{4-[(6,7-dimethoxy-4-quinolyl)oxy]-2-fluorophenyl}thiourea]  0.572 µM
13. COc1cc2nccc(Oc3ccc(NC(=S)NC(=O)c4c(F)cccc4F)cc3)c2cc1OC [Example 1007, N-(2,6-Difluorobenzoyl)-N′-{4-[(6,7-dimethoxy-4-quinolyl)oxy]phenyl}thiourea]  0.616 µM
14. COc1cc2nccc(Oc3ccc(NC(=S)NC(=O)CCc4ccccc4)c(F)c3)c2cc1OC [Example 1026, N-{4-[(6,7-Dimethoxy-4-quinolyl)oxy]-2-fluorophenyl}-N′-(3-phenylpropanoyl)thiourea]  0.652 µM
15. COc1cc2nccc(Oc3ccc(NC(=S)NC(=O)c4ccc(Cl)cc4Cl)cc3Cl)c2cc1OC [Example 1114, N-{3-Chloro-4-[(6,7-dimethoxy-4-quinolyl)oxy]phenyl}-N′-(2,4-dichlorobenzoyl)thiourea]  0.674 µM
16. COc1cc2nccc(Oc3ccc(NC(=S)NC(=O)c4cccc(F)c4)c(F)c3)c2cc1OC [Example 937, N-{4-[(6,7-Dimethoxy-4-quinolyl)oxy]-2-fluorophenyl}-N′-(3-fluorobenzoyl)thiourea]  0.819 µM

same assay, conditions: Mo7e, figure in parentheses in −( ); at 1000 nM

In order of rising inhibition at 1 µM:
1. COc1cc2nccc(Oc3ccc(NC(=S)NC(=O)c4ccc(C)cc4)c(C)c3C)c2cc1OC [Example 1080, N-{4-[(6,7-Dimethoxy-4-quinolyl)oxy]-2,3-dimethylphenyl}-N′-(4-methylbenzoyl)thiourea]  0%
2. COc1cc2nccc(Oc3ccc(NC(=S)NC(=O)N4c5ccccc5CCc5ccccc54)cc3)c2cc1OC [Example 1047, N-[10,11-Dihydro-5H-dibenzo(b,f)azepin-5-ylcarbonyl]-N′-{4-[(6,7-dimethoxy-4-quinolyl)oxy]phenyl}thiourea]  7%
3. COc1cc2nccc(Oc3ccc(NC(=S)NC(=O)c4c(Cl)cccc4Cl)cc3Cl)c2cc1OC [Example 1115, N-{3-Chloro-4-[(6,7-dimethoxy-4-quinolyl)oxy]phenyl}-N′-(2,6-dichlorobenzoyl)thiourea]  10%
4. CCCCC(CCCC)OC(=O)Nc1ccc(Oc2ncnc3cc(OC)c(OC)cc23)cc1Cl [Example 372, 1-Butylpentyl N-{2-chloro-4-[(6,7-dimethoxy-4-quinazolinyl)oxy]phenyl}carbamate]  14%
5. COc1cc2ncnc(Oc3ccc(NC(=S)NC(=O)c4ccc(Cl)cc4Cl)cc3)c2cc1OC [Example 1207, N-(2,4-Dichlorobenzoyl)-N′-{4-[(6,7-dimethoxy-4-quinazolinyl)oxy]phenyl}thiourea]  16%
6. COc1cc2nccc(Oc3ccc(NC(=S)NC(=O)c4ccccc4F)c(C)c3)c2cc1OC [Example 1094, N-{4-[(6,7-Dimethoxy-4-quinolyl)oxy]-2-methylphenyl}-N′-(2-fluorobenzoyl)thiourea]  18%
7. COc1cc2nccc(Oc3ccc(NC(=S)NC(=O)c4ccc(Cl)cc4)cc3Cl)c2cc1OC [Example 978]  22%
8. COc1cc2nccc(Oc3ccc(NC(=S)NC(=O)c4c(Cl)cccc4Cl)c(F)c3)c2cc1OC [Example 1012, N-(2,6-Dichlorobenzoyl)-N′-{4-[(6,7-dimethoxy-4-quinolyl)oxy]-2-fluorophenyl}thiourea]  24%
9. COc1cc2nccc(Oc3ccc(NC(=S)NC(=O)c4ccccc4C)c(C)c3)c2cc1OC [Example 1090, N-{4-[(6,7-Dimethoxy-4-quinolyl)oxy]-2-methylphenyl}-N′-(2-methylbenzoyl)thiourea]  30%
10. COc1ccc(C(=O)NC(=S)Nc2ccc(Oc3ncnc4cc(OC)c(OC)cc34)cc2)cc1 [Example 988, N-{4-[(6,7-Dimethoxy-4-quinazolinyl)oxy]phenyl}-N′-(4-methoxybenzoyl)thiourea]  33%
11. COc1cc2ncnc(Oc3ccc(SCCCOc4cccc(C)c4)cc3)c2cc1OC [Example 846, 6,7-Dimethoxy-4-(4-{[3-(3-methylphenoxy)propyl]sulfanyl}phenoxy)quinazoline]  33%
12. COc1cc2ncnc(Oc3ccc(NC(=S)NC(=O)c4ccc(F)cc4F)cc3)c2cc1OC [Example 1021, N-(2,4-Difluorobenzoyl)-N′-{4-[(6,7-dimethoxy-4-quinazolinyl)oxy]phenyl}thiourea]  38%
13. COc1cc2nccc(Oc3ccc(S(=O)(=O)CCOc4ccccc4C(C)C)cc3)c2cc1OC [Example 836, 4-[(6,7-Dimethoxy-4-quinolyl)oxy]phenyl [2-(2-isopropylphenoxy)ethyl]sulfone]  39%
14. COc1cc2nccc(Oc3ccc(NC(=S)NC(=O)c4ccccc4F)cc3Cl)c2cc1OC [Example 921, N-{3-Chloro-4-[(6,7-dimethoxy-4-quinolyl)oxy]phenyl}-N′-(2-fluorobenzoyl)thiourea]  42%
15. COc1cc2nccc(Oc3ccc(NC(=S)NC(=O)c4ccc(I)cc4)cc3Cl)c2cc1OC [Example 981, N-{3-Chloro-4-[(6,7-dimethoxy-4-quinolyl)oxy]phenyl}-N′-(4-iodobenzoyl)thiourea]  47%

same assay, conditions: Mo7e, figure within parentheses in −( ) or >1000( ); at 1000 nM

In order of falling inhibition at 1 µM:
1. COc1cc2ncnc(Oc3ccc(NC(=O)NCCN4CCCC4)cc3)c2cc1OC [Example 621, N-{4-[(6,7-Dimethoxy-4-quinazolinyl)oxy]phenyl}-N′-(2-tetrahydro-1H-1-pyrrolylethyl)urea]  30%
2. COc1cc2nccc(Oc3ccc(NC(=O)NN4CCCCC4)c(F)c3)c2cc1OC [Example 613, N-{4-[(6,7-Dimethoxy-4-quinolyl)oxy]-2-fluorophenyl}-N′-(1-piperidinyl)urea]  29%

same assay, conditions: figure in parentheses in −( ); at 1000 nM; 1 µM

In the case of `COc1cc2nccc(Oc3ccc(NC(=S)NC(=O)Cc4ccccc4)c(C)c3C)c2cc1OC` [Example 1206, N-{4-[(6,7-Dimethoxy-4-quinolyl)oxy]-2,3-dimethylphenyl}-N′-(2-phenylacetyl)thiourea], the “c-kit inhibition (%) at 1000 nM” value is reported as “−(27) %”.
